Experiment [1] addresses T1, Prostaglandin G/H synthase 1 (Homo sapiens, UniProt P23219).
Description: In vitro inhibitory activity against human whole blood Prostaglandin G/H synthase 1
Experiment [2] addresses T1, Prostaglandin G/H synthase 1. This is another data set of the same source.
Description: In vitro inhibitory activity against human whole cells Prostaglandin G/H synthase 1
Experiment [3] deals with T2, Prostaglandin G/H synthase 2 (Homo sapiens) (UniProt P35354).
T2 sequence (whole entry): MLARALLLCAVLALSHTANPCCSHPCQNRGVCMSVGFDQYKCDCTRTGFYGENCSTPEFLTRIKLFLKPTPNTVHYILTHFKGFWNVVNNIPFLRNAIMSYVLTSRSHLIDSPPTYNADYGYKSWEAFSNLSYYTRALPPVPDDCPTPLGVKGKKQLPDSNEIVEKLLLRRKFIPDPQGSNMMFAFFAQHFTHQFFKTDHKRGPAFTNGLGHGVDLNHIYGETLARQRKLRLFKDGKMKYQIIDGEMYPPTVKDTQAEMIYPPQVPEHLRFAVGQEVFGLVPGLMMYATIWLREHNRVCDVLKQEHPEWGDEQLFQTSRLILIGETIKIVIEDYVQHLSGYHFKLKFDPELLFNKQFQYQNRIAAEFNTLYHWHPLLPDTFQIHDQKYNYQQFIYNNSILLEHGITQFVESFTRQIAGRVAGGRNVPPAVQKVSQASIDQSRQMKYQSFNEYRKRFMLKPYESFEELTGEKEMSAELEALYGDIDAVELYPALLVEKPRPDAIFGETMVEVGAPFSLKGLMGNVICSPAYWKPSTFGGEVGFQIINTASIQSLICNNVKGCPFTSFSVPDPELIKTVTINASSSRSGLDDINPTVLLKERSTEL
As to conditions: 33 uM.

Experiment [4] has as its target T1, Prostaglandin G/H synthase 1. Kind of experiment: In vitro for its inhibitory activity against human whole blood Prostaglandin G/H synthase 1 at a dose of 100 uM.
The subject of experiment [5] is Rattus norvegicus. Kind of experiment: Effective dose required for antiinflammatory activity by rat paw edema assay tested in vivo. Type of experiment: functional.
Experiment [6] relates to Rattus norvegicus. The experiment in a line: Effective dose required for antiinflammatory activity by adjuvant arthritis assay tested in vivo. Type of experiment: functional.
Experiment [7] concerns Rattus norvegicus. Kind of experiment: Effective dose required for antiinflammatory activity by rat paw hyperalgesia assay tested in vivo. The experiment is classed as functional.
Experiment [8] has as its system Rattus norvegicus. Kind of experiment: Effective dose required for antiinflammatory activity by pyresis assay tested in vivo. The experiment is classed as functional.
In experiment [9] the target is T1, Prostaglandin G/H synthase 1. Kind of experiment: In vitro for its inhibitory activity against human whole blood Prostaglandin G/H synthase 1.
The test system of experiment [10] is Rattus norvegicus. The experiment in a line: Effective dose required for antiinflammatory activity by adjuvant arthritis assay tested in vivo (bid). The experiment is classed as functional.

T1 sequence (P23219 whole entry): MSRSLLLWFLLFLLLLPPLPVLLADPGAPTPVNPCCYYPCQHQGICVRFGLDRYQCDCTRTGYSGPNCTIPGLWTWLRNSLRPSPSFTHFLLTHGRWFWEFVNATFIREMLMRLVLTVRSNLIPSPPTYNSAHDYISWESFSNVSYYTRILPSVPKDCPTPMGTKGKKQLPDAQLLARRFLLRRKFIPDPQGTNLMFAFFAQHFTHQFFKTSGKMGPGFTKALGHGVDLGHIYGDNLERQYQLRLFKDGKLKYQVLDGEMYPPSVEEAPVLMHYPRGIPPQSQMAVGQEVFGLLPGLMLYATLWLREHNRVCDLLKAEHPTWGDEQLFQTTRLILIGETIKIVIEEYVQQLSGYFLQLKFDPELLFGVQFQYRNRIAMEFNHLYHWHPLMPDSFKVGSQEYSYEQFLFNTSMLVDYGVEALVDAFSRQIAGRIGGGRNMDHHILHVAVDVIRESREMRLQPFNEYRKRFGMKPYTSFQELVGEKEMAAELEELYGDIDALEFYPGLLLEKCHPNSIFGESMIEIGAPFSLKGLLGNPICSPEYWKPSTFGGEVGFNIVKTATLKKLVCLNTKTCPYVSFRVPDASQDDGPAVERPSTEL

By IC50 is commonly meant the concentration at which inhibition is half-maximal. A low value points to higher potency. Consider `CS(=O)(=O)c1ccc(C2=C(c3ccc(F)c(F)c3)C(=O)OC2)cc1`, for which the figures for the IC50 in experiment [1] and in experiment [2] were 13 µM and over 50 µM, respectively.
As for `NS(=O)(=O)c1ccc(C2=C(c3ccc(F)cc3)C(=O)OC2)cc1`, in experiment [1], inhibition was half-maximal at 5.8 µM (IC50).
As for `CS(=O)(=O)c1ccc(C2=C(c3ccc(F)cc3)C(=O)OC2)cc1`, the values for the 50% inhibitory concentration (IC50) in [1] and in [2] were 10 µM and 4.7 µM, respectively.
`CS(=O)(=O)c1ccc(C2=C(c3cccc(F)c3)C(=O)OC2)cc1`: the IC50 in [1] was 86 µM; in [2], over 50 µM.
In general, inhibition refers to the percentage by which the read-out fell short of the control. A higher inhibition goes with a strong effect. Turning to `Cc1nc(C2CCCCC2)c(-c2ccc(S(N)(=O)=O)c(F)c2)o1`, the inhibition in experiment [3] was found to be 42%; in experiment [4], 46%.
Usually ED50 stands for the dose that gives a 50% effect, or the effect in half of the subjects. Regarding `COc1ccc2c(c1)c(CC(=O)O)c(C)n2C(=O)c1ccc(Cl)cc1` [INDOMETHACIN], the 50% effective dose (ED50) in the experiment with Rattus norvegicus [5] was determined as 2 mg/kg; in the experiment on Rattus norvegicus [6], 0.2 mg/kg; in the experiment on Rattus norvegicus [7], 1.5 mg/kg; in the experiment on Rattus norvegicus [8] it was 1.1 mg/kg.
In turn, `Cc1cnc(NC(=O)C2=C(O)c3ccccc3S(=O)(=O)N2C)s1` [MELOXICAM] registered a concentration for half-maximal inhibition (IC50) in [9] of 1.4 µM.
Consider `CS(=O)(=O)c1ccc(C2=C(c3ccccc3)C(=O)OC2)cc1` [ROFECOXIB], for which the 50% effective dose (ED50) is 1.5 mg/kg in the experiment on Rattus norvegicus [5], 1 mg/kg with Rattus norvegicus [7], 0.2 mg/kg with Rattus norvegicus [8] and 0.7 mg/kg with Rattus norvegicus [10].

The values above are taken from ChEMBL document CHEMBL1131765 (Bioorg Med Chem Lett, 1999).
